Results: patent publication US6960594B2, “Thiophene and furan 2,5-dicarboxamides useful in the treatment of cancer” (Shire BioChem Inc., priority 1998, dated 2005)
Read-outs that look alike come from different tables or passages of the source.

What was measured:
[1] = system: Chick chorioallantoic membrane (CAM) capillary formation driven by VPF/VEGF165; test: Chick chorioallantoic membrane (CAM) mesh assay; type: in vivo, chicken; settings: significant if >25%
Protocol: Fertilized white leghorn chicken eggs (SPAFAS Inc., Norwich, Conn.) were received at day 0 and incubated for 3 days at 37 C with constant humidity. On day 3, eggs were rinsed with 70% ethanol and opened into 100 mm^2 tissue culture coated Petri dishes under aseptic conditions. The embryos were then returned to a humidified 38 C incubator for 7-9 additional days.
Vitrogen (Collagen Biomaterials, Palo Alto, Calif.) at a final concentration of 0.73 mg/mL and Matrigel (Becton Dickinson, Bedford, Mass.) at a final concentration of 10 mg/mL was directly pipetted onto Nylon meshes with 250 μm^2 openings which were cut into 4 mm×4 mm squares and autoclaved. Polymerization of meshes were under aseptic conditions, on bacteriological Petri dishes. The polymerization conditions for each substrate were identical; after mixing with or without 250 μg of VPF/VEGF165 (Peprotech, Rocky Hill, N.J.) and/or compounds of interest, 40 μL were pipetted onto each mesh in a bacteriological Petri dish. The Petri dish was placed in a humidified 37 C incubator with 5% CO2 for 30 minutes to allow polymerization followed by an incubation at 4° C. for 2 hours.
In a tissue culture enclosure, meshes were placed onto the periphery of the CAM of a day 12-14 embryo, excluding areas containing major vessels. The embryos were then returned to the humidified 38° C. incubator with 3% CO2 for 24 to 48 additional hours.
Embryos were removed from the incubator and meshes were viewed under a dissecting microscope for gross evaluation. Injection of 400 μL FITC dextran, MW 2,000,000 (Sigma, St. Louis, Mo.) through glass microcapillary tubes by infusion into the umbilical vein was performed at a rate of 200 μl per minute. The FITC dextran was allowed to circulate for 5 minutes and 3.7% formaldehyde in PBS was applied directly on each mesh. The embryos were then incubated at 40° C. for 5 minutes and the meshes were dissected off the CAM and fixed in 3.7% formaldehyde for 10 minutes to overnight.
After fixation, meshes were mounted on slides with 90% glycerol in PBS and visualized on an inverted fluorescence microscope. A Nikon Diaphot with a Sony DXC-151A camera attached to the side port was used for capture of images and analysis was with the NIH Image 1.61 software program. For each mesh, 5 random staggered images (approximately 600 μm each) were captured. The areas of high intensity were highlighted and measured. Results are expressed as ability to suppress capillary formation after subtraction from negative control. Values were calculated as a inhibition, considering 100% the capillary density achieved by VPF in the presence of vitrogen alone minus the bakground levels in the absence of VPF. Negative values indicated angiogenic stimulation above the VPF positive control.

GP IIb-IIIa (αIIbβ3) = biological target: T1, GP IIb-IIIa (αIIbβ3) (Homo sapiens, UniProt P05106+P08514); test: Fibrinogen binding to immobilized GP IIb-IIIa (αIIbβ3)
T1 construct: purchased Calbiochem
T1 sequence (P08514 32-887 limits assumed): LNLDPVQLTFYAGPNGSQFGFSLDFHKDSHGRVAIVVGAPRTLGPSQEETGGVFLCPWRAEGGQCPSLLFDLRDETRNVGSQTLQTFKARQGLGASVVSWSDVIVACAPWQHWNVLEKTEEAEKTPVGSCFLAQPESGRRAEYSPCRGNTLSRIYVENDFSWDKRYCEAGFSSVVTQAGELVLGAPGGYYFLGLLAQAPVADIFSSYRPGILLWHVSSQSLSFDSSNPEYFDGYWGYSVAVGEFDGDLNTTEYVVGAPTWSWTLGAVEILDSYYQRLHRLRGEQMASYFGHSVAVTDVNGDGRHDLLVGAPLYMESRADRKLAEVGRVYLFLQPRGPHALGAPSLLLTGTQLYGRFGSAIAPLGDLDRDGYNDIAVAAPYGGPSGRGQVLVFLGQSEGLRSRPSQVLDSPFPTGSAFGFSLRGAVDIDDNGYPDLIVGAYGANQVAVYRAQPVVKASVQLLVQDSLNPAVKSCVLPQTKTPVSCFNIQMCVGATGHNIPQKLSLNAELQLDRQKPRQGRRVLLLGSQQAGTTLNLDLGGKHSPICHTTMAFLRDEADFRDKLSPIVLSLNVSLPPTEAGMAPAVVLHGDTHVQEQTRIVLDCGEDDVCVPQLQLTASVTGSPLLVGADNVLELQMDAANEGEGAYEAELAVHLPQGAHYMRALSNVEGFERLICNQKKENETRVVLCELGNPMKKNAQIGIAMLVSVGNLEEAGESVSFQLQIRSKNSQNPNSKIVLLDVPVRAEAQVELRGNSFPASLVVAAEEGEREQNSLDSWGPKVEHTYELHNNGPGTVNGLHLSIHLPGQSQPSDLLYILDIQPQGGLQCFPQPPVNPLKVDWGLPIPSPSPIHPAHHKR
T1 sequence (P08514 891-1039 partner limits assumed): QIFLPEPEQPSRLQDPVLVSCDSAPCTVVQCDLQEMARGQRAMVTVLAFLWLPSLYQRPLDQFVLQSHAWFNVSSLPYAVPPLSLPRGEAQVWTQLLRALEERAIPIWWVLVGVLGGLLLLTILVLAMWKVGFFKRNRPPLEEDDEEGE
T1 sequence (P05106 27-788): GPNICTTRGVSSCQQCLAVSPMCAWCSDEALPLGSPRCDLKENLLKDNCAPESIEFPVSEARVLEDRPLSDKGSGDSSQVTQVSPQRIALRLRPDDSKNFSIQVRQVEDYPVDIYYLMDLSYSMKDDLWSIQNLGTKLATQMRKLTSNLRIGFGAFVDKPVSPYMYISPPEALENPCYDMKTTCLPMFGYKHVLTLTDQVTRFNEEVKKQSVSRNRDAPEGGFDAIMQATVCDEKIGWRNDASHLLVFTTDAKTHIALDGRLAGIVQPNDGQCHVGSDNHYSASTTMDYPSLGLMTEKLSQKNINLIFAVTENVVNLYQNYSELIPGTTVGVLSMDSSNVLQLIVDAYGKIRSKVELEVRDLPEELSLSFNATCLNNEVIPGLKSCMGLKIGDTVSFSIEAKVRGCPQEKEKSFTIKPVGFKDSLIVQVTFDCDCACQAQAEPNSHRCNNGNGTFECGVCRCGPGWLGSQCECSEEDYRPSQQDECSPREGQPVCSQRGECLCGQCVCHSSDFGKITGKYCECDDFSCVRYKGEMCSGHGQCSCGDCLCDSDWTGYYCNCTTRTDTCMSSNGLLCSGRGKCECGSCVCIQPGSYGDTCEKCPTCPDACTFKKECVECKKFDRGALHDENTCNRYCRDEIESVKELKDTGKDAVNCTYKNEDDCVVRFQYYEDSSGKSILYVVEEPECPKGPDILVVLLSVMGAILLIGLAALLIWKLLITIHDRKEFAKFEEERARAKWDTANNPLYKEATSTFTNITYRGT
Protocol: (§1) The wells of plastic microtiter plates were coated overnight at 4° C. with purified active αIIbβ3 (Calbiochem) or placental αvβ3 at 0.5 ug/mL (100 uL/well) in a buffer containing 150 mM NaCl, 20 mM Tris, pH 7.4, 1 mM MgCl2, 0.2 mM MnCl2, and including 1 mM CaCl2 for αIIbβ3. Blocking of nonspecific sites was achieved by incubating the wells with 35 mg/mL bovine serum albumin (BSA) for at least 2 hours at 37° C. Biotinylated-fibrinogen (10 nM) was added in 0.2 mL binding buffer (100 mM NaCl, 50 mM Tris, pH 7.4, 1 mM MgCl2, 0.2 mM MnCl2 and 1 mg/mL BSA including 1 mM CaCl2 for αIIbβ3) to the wells in triplicate in the absence or presence of increasing concentrations of compounds of interest (0.001-100 uM) and further incubated for 2 hours at 37° C. Nonbound fibrinogen was removed by five washes with binding buffer. Avidin conjugated to alkaline phosphatase (Sigma), diluted in binding buffer, was added and incubated for two hours at 37° C. The plates were washed five times with binding buffer, and after addition of the substrate PNPP (Pierce), the enzyme activity was measured by the absorbance at 405 nm.

HT29 = test: Cell proliferation and cytotoxicity MTT assay, HT29; type: cell-based
Protocol: (§2) The wells of microtiter plates were seeded with 2000 cells/well T24, 2500 cells/well HT29 or 5000 cells/well HMVEC (Cell Systems) in 100 uL, followed by an overnight culture for cell adhesion. The next day, the media is supplemented with 100 uL of 10-fold dilution of compound of interest starting at 10 uM. Following culture for 72 hours, 3-(4,5-dimethyl-2-thiazolyl)-2,5-diphenyltetrazolium bromide (MTT; Sigma) at 2 mg/mL was added to each well (50 uL/well) and further incubated for 4 hours at 37° C. The medium was flicked out and 200 uL of a 1:1 solution of ethanol:acetone followed by 25 uL of glycine buffer (0.1 M glycine, 0.1M NaCl, pH 10.5) is added and the color measured by the absorbance at 570 nm.

HMVEC = test: Cell proliferation and cytotoxicity MTT assay, HMVEC; type: cell-based; settings: 72 hours culture
Protocol: as §2

αvβ5 = biological target: T2, αvβ5 (Homo sapiens, UniProt P06756+P18084); test: Cell adhesion assay, HT29 on vitronectin; type: cell-based
T2 construct: Cells HT29, K562, or K562 transfected with αvβ3; endogenous in cells; host or cells: HT29
Protocol: (§3) The wells of 96-well plates (Immunolon) were coated, by incubation overnight at 4° C., with 5 ug/mL vitronectin, 2 ug/mL osteopontin, or fibronectin or 10 mg/mL BSA in PBS. The protein solution was flicked out and the wells were blocked with 10 mg/mL BSA (0.1 mL) for 1-2 hours at 37° C. […] Cells were lifted with trypsin-EDTA and washed two times with Hank's balanced salt solution minus cations (Sigma) supplemented with 1 mM MgCl2 Cells (75,000 cells/well) were added to coated plates in triplicate and allowed to attach at 37° C. for 1 hour in the presence or absence of specific antibodies (5 ug/mL) or 10-fold dilutions of compounds of interest starting at 10 uM. Nonadherent cells were removed by gentle washing twice with PBS. The adherent cells were solubilized with 1% triton x-100 and detected using a fluorescence plate reader (DYNEX Technologies). The number of attached cells was calculated based upon standard curves for each cell line used in the experiment.

α5β1 = biological target: T3, α5β1 (Homo sapiens, UniProt P05556+P08648); test: Cell adhesion assay, K562 on fibronectin; type: cell-based; settings: K562 cells, adhesion to fibronectin, 1 hour
T3 construct: Cells HT29, K562, or K562 transfected with αvβ3; endogenous in cells; host or cells: K562
T3 sequence (P08648 42-894 limits assumed): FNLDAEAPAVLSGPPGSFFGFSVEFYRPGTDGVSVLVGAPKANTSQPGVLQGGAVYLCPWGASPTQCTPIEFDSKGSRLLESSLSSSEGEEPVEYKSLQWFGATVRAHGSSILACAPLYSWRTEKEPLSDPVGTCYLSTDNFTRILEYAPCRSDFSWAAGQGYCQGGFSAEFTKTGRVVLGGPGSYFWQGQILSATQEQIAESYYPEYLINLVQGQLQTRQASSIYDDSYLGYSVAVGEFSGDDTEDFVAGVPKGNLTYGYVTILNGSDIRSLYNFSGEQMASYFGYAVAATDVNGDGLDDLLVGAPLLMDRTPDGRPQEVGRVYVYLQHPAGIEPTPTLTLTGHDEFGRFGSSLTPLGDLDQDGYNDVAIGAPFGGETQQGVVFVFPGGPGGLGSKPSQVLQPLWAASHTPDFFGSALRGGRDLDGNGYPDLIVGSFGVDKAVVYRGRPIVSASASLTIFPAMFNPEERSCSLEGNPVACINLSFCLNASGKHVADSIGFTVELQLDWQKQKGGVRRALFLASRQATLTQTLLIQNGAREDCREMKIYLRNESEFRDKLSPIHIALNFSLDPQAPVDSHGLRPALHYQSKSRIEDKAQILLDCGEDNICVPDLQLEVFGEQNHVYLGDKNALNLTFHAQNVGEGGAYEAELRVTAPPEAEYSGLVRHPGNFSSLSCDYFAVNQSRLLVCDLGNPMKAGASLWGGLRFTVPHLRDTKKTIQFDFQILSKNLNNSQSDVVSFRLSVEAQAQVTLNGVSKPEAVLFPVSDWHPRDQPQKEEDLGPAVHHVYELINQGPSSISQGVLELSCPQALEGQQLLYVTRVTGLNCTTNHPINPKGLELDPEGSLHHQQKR
T3 sequence (P08648 895-1049 partner limits assumed): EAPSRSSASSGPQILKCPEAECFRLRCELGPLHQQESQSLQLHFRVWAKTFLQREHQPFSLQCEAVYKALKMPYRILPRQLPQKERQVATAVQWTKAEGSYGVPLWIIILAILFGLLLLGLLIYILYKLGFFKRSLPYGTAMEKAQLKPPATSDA
T3 sequence (P05556 21-798): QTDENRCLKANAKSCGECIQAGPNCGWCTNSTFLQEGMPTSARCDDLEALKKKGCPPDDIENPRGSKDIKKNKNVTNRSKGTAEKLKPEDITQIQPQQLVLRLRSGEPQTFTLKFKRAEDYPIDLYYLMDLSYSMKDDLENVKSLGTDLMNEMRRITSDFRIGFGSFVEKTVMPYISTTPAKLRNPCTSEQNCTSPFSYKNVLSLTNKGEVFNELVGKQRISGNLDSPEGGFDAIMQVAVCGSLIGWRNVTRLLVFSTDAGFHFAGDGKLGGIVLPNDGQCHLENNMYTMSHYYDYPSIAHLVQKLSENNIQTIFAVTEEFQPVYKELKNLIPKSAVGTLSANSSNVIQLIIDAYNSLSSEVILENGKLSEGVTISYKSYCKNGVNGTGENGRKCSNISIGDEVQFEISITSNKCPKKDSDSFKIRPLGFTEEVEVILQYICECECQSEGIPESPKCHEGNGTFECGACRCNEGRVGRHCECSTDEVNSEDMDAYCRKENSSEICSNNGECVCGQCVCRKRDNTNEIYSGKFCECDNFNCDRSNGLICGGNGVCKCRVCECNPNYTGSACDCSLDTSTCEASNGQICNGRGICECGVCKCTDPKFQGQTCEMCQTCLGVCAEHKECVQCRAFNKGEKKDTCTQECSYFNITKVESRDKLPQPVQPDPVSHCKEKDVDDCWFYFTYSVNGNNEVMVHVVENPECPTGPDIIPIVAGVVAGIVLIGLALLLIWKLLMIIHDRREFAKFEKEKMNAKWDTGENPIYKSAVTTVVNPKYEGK
Protocol: The wells of 96-well plates (Immunolon) were coated, by incubation overnight at 4° C., with 5 ug/mL vitronectin, 2 ug/mL osteopontin, or fibronectin or 10 mg/mL BSA in PBS. The protein solution was flicked out and the wells were blocked with 10 mg/mL BSA (0.1 mL) for 1-2 hours at 37° C. Cells HT29, K562, or K562 transfected with αvβ3 (Blystone et al., 1994) were loaded with a fluorescent marker, 5-chloromethylfluorescein diacetate (Molecular Probes, Eugene, Oreg.) for 1 hour at 37° C., then incubated in fresh medium without the fluorescent marker for 1 hour. Cells were lifted with trypsin-EDTA and washed two times with Hank's balanced salt solution minus cations (Sigma) supplemented with 1 mM MgCl2 Cells (75,000 cells/well) were added to coated plates in triplicate and allowed to attach at 37° C. for 1 hour in the presence or absence of specific antibodies (5 ug/mL) or 10-fold dilutions of compounds of interest starting at 10 uM. Nonadherent cells were removed by gentle washing twice with PBS. The adherent cells were solubilized with 1% triton x-100 and detected using a fluorescence plate reader (DYNEX Technologies). The number of attached cells was calculated based upon standard curves for each cell line used in the experiment. Non-specific cell attachment (attachment to wells coated with BSA) was always less than 5%.

αvβ3 = biological target: T4, αvβ3 (Homo sapiens, UniProt P05106+P06756); test: Cell adhesion assay, K562-tr on osteopontin; type: cell-based
T4 construct: expressed in transfected cells; host or cells: K562
T4 sequence (P06756 31-889 limits assumed): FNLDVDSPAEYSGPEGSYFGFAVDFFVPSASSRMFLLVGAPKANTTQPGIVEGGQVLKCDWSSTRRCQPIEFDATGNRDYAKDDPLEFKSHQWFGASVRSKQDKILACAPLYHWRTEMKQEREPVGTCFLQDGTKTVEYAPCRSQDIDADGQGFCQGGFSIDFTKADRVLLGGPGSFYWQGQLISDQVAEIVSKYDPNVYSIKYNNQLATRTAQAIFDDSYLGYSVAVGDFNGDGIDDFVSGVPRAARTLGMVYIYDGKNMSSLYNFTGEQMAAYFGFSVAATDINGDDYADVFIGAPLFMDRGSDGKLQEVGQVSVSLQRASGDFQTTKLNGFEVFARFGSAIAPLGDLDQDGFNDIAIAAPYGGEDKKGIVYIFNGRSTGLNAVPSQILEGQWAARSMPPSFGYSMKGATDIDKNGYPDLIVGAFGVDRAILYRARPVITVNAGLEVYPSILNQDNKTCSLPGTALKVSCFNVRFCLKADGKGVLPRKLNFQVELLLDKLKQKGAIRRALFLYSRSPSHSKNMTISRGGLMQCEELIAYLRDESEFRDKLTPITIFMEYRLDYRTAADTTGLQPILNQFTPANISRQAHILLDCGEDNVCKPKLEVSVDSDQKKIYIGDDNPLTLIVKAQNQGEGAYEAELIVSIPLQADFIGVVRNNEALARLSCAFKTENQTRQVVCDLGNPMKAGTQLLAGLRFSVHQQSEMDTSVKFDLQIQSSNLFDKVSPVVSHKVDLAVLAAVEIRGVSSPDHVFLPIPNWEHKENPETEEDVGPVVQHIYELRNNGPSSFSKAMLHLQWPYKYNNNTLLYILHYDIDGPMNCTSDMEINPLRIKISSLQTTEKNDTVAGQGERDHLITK
T4 sequence (P06756 891-1048 partner limits assumed): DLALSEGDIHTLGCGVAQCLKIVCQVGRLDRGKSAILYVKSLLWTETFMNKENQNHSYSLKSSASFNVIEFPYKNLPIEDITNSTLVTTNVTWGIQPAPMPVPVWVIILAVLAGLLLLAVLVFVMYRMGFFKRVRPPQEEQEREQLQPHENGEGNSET
T4 sequence (P05106 27-788): as the sequence (P05106 27-788) above
Protocol: as §3

placental αvβ3 = biological target: T5, placental αvβ3 (Homo sapiens, UniProt P05106+P06756); test: Fibrinogen binding to immobilized αvβ3
T5 construct: placental αvβ3 at 0.5 ug/mL; from tissue; host or cells: placenta
T5 sequence (P06756 31-889 limits assumed): as the sequence (P06756 31-889 limits assumed) above
T5 sequence (P06756 891-1048 partner limits assumed): as the sequence (P06756 891-1048 partner limits assumed) above
T5 sequence (P05106 27-788): as the sequence (P05106 27-788) above
Protocol: as §1

Row | Molecule | % of inhibition at 33 μg/mesh in the presence of VEGF [1] [%] | IC50 (GP IIb-IIIa (αIIbβ3)) [nM] | IC50 (HT29; Homo sapiens, HT-29, 72 hours culture) [nM] | IC50 (HMVEC; HMVEC) [nM] | IC50 (αvβ5) [nM] | IC50 (α5β1) [nM] | IC50 (αvβ3) [nM] | IC50 (placental αvβ3) [nM] | IC50 (GP IIb-IIIa (αIIbβ3); biotinylated-fibrinogen (10 nM) binding to immobilized αIIbβ3, read-out: IC50 αIIbβ3) [nM] | IC50 (HT29; 72 hours culture) [nM] | IC50 (HMVEC) [nM] | IC50 (αvβ5; HT29 cells, adhesion to vitronectin, 1 hour, read-out: IC50 HT29 Vitronectin (αvβ5)) [nM] | IC50 (αvβ3; K562 transfected with αvβ3, adhesion to osteopontin, 1 hour, read-out: IC50 K562-tr Osteopontin (αvβ3)) [nM] | IC50 (placental αvβ3; biotinylated-fibrinogen (10 nM) binding to immobilized αvβ3, read-out: IC50 αvβ3) [nM]
1 | N=C(N)NCCNC(=O)c1ccc(C(=O)NCC(Nc2ncccn2)C(=O)O)s1.O=C(O)C(F)(F)F.O=C(O)C(F)(F)F (stereo not shown) [Compound XXX, 3-{[5-(2-guanidino-ethylcarbamoyl)-thiophene-2-carbonyl]-amino}-2-(pyrimidin-2-ylamino)-propionic acid bis trifluoroacetic acid salt] | 31 | 690 | > 10000 | > 10000 | > 10000 | > 10000 | 3400 | 150 | – | – | – | – | – | –
2 | (2S)2-Benzenesulfonylamino-3-[5-(2-guanidinyl-ethylcarbamoyl)-thiophen-2-carbonyl]-amino propionic acid hydrochloride salt [Compound XI] | 38 | – | – | – | – | 5300 | – | – | 0.31 | 9900 | 870 | 210 | 87 | 0.58
